One may read the AUC as concentration integrated over time. By half-life is commonly meant the time in which the quantity being followed falls by half. For orientation: bioavailability means dose-corrected exposure relative to a reference, in per cent. In general, Cmax refers to the peak of the concentration-time curve.

Data set [1] is described as follows: AUC in mouse at 10 mg/kg, po. The conditions noted are these: in vivo. Format: ADME, organism-based.
Data set [2] in a line: Drug uptake in CD-IGS rat at 1 mg/kg, po administered for 3 days measured at 24 hrs post last dose. Format: ADME, organism-based. The conditions noted are these: in vivo, read-out: Drug uptake.
The next data set has as its system Mus musculus. The data set can be described thus: AUC in mouse assessed as GW-7604 at 100 mg/kg, po. The conditions noted are these: in vivo. Format: ADME, organism-based.
The nature of data set [3]: AUC in mouse at 100 mg/kg, po. Format: ADME, organism-based. The conditions noted are these: in vivo.
Data set [4] in a line: Drug uptake in CD-IGS rat at 1 mg/kg, po administered for 3 days measured at 6 hrs post last dose. The format is ADME, organism-based. The note with it: in vivo, read-out: Drug uptake.
Data set [5] can be described thus: AUC in 17-beta estradiol pellets supplemented nu/nu mouse xenografted with tamoxifen-resistant human MCF7 cells at 100 mg/kg/day, po administered for 4 weeks measured on day 28. The format is ADME, organism-based. The conditions noted are these: in vivo. (A xenograft is tissue or cells of one species grown in another, often human tumour cells in immunodeficient mice.)

A further data set in a line: in vivo. The note with it: mouse, iv, 3 mg/kg.
Data set [6] in a line: Half life in cynomolgus monkey at 3 mg/kg, iv. Format: ADME, organism-based, Macaca fascicularis. The conditions noted are these: in vivo.
Data set [7] can be described thus: Half life in mouse at 3 mg/kg, iv. The format is ADME, organism-based. The conditions noted are these: in vivo.
A short description of data set [8]: Oral bioavailability in rat at 10 mg/kg. Format: ADME, organism-based. The conditions noted are these: in vivo.
The nature of data set [9]: AUC in rat at 10 mg/kg, po. The format is ADME, organism-based. The note with it: in vivo.
Data set [10] can be described thus: Cmax in dog at 10 mg/kg, po. The format is ADME, organism-based, Canis lupus familiaris. More on the design: dose 10 mg/kg, route oral. The conditions noted are these: in vivo.
A short description of data set [11]: Volume of distribution at steady state in dog at 3 mg/kg, iv and 10 mg/kg, po. The note with it: in vivo, read-out: Vdss. The format is ADME, organism-based, Canis lupus familiaris.
A short description of data set [12]: Volume of distribution at steady state in cynomolgus monkey at 3 mg/kg, iv and 10 mg/kg, po. Format: ADME, organism-based, Macaca fascicularis. The conditions noted are these: in vivo, read-out: Vdss.
Data set [13] in a line: AUC in 17-beta estradiol pellets supplemented nu/nu mouse xenografted with tamoxifen-resistant human MCF7 cells at 30 mg/kg/day, po administered for 4 weeks measured on day 28. The format is ADME, organism-based. The note with it: in vivo.
The nature of data set [14]: Clearance in rat at 3 mg/kg, iv and 10 mg/kg, po. The format is ADME, organism-based. The conditions noted are these: in vivo.
Data set [15] can be described thus: Half life in dog at 3 mg/kg, iv. Format: ADME, organism-based, Canis lupus familiaris. The conditions noted are these: in vivo.
Data set [16] in a line: Clearance in cynomolgus monkey at 3 mg/kg, iv and 10 mg/kg, po. Format: ADME, organism-based, Macaca fascicularis. The note with it: in vivo.
The nature of data set [17]: Clearance in dog at 3 mg/kg, iv and 10 mg/kg, po. The conditions noted are these: in vivo. The format is ADME, organism-based, Canis lupus familiaris.
Data set [18] can be described thus: AUC in dog at 10 mg/kg, po. Format: ADME, organism-based, Canis lupus familiaris. The conditions noted are these: in vivo.
A short description of data set [19]: Cmax in rat at 10 mg/kg, po. The format is ADME, organism-based. The arrangement: dose 10 mg/kg, route oral. The conditions noted are these: in vivo.
A short description of data set [20]: Cmax in mouse at 10 mg/kg, po. The note with it: in vivo. Format: ADME, organism-based. The arrangement: dose 10 mg/kg, route oral.
The nature of data set [21]: Half life in rat at 3 mg/kg, iv. The format is ADME, organism-based. The conditions noted are these: in vivo.
A short description of data set [22]: Cmax in cynomolgus monkey at 10 mg/kg, po. The format is ADME, organism-based, Macaca fascicularis. The arrangement: dose 10 mg/kg, route oral. The conditions noted are these: in vivo.
Data set [23] can be described thus: Oral bioavailability in cynomolgus monkey at 10 mg/kg. Format: ADME, organism-based, Macaca fascicularis. The note with it: in vivo.
Data set [24] is described as follows: Volume of distribution at steady state in mouse at 3 mg/kg, iv and 10 mg/kg, po. Format: ADME, organism-based. The conditions noted are these: in vivo, read-out: Vdss.
A short description of data set [25]: Drug metabolism in microsomes (unknown origin) assessed as formation of (2S,3S,4R,5R,6S)-6-((E)-3-(4-((E)-2-(2-chloro-4-fluorophenyl)-1-(1H-indazol-5-yl)but-1-enyl)phenyl)acryloyloxy)-3,4,5-trihydroxytetrahydro-2H-pyran-2-carboxylic acid. Format: ADME, Microsome.
A short description of data set [26]: AUC in cynomolgus monkey at 10 mg/kg, po. Format: ADME, organism-based, Macaca fascicularis. The note with it: in vivo.
Data set [27] in a line: Volume of distribution at steady state in rat at 3 mg/kg, iv and 10 mg/kg, po. Format: ADME, organism-based. The note with it: in vivo, read-out: Vdss.
The nature of data set [28]: Oral bioavailability in dog at 10 mg/kg. Format: ADME, organism-based, Canis lupus familiaris. The conditions noted are these: in vivo.
Data set [29] is described as follows: AUC in 17-beta estradiol pellets supplemented nu/nu mouse xenografted with tamoxifen-resistant human MCF7 cells at 200 mg/kg, sc administered 3 times per week for 4 weeks measured on day 28. Format: ADME, organism-based. The note with it: in vivo.
A short description of data set [30]: Drug level in microsomes (unknown origin) treated with (E)-3-(4-((E)-2-(2-chloro-4-fluorophenyl)-1-(1H-indazol-5-yl)but-1-enyl)phenyl)acrylic acid. Format: ADME, Microsome.
Data set [31] is described as follows: Half life in phosphate buffer at pH 7.4 at 37 degC. The format is physicochemical.

In turn, `CC/C(=C(/c1ccc(/C=C/C(=O)O)cc1)c1ccc2[nH]ncc2c1)c1ccncc1Cl` came in with an AUC in data set [1] of 110 ng·h/mL. The concentration at 24 h in [2] came to 0.5 nM.
For `CC/C(=C(/c1ccc(/C=C/C(=O)O)cc1)c1ccc2[nH]ncc2c1)c1cccc(Cl)c1` the same measures were 11000 ng·h/mL and 11 nM.
As to `CC/C(=C(\c1ccc(O)cc1)c1ccc(/C=C/C(=O)O)cc1)c1ccccc1`, in the data set on Mus musculus, the AUC came out at 13000 ng·h/mL.
In turn, `CC/C(=C(/c1ccc(/C=C/C(=O)O)cc1)c1ccc2[nH]ncc2c1)c1ccncc1C` yielded an AUC in data set [1] of 81 ng·h/mL. For the same compound, the concentration at 24 h in data set [2] came out at 7.6 nM.
With `CC/C(=C(\c1ccccc1)c1ccc(/C=C/C(=O)O)cc1)c1ccccc1`, the AUC in data set [3] turned out to be 137000 ng·h/mL.
`CC/C(=C(/c1ccc(/C=C/C(=O)O)cc1)c1ccc2[nH]ncc2c1)c1ccccc1`: the AUC in data set [3] was 240000 ng·h/mL; in data set [1] it was 5800 ng·h/mL. Moreover, in [2], the concentration at 24 h stood at 3.8 nM.
For the compound `CC/C(=C(/c1ccc(/C=C/C(=O)O)cc1)c1ccc2[nH]ncc2c1)c1ccccc1Cl`, the exposure (AUC) in data set [1] was determined as 15000 ng·h/mL. Also, the concentration at 24 h in data set [2] was found to be 3.7 nM.
In data set [1], `CC/C(=C(/c1ccc(/C=C/C(=O)O)cc1)c1ccc2[nH]ncc2c1)c1ccc(C#N)cc1Cl` registered an AUC of 2900 ng·h/mL. Besides, in [4], the concentration at 6 h came out at 10 nM.
In turn, `CC/C(=C(/c1ccc(/C=C/C(=O)O)cc1)c1cccc2[nH]ncc12)c1ccccc1` yielded an AUC in data set [1] of 2800 ng·h/mL. The concentration at 24 h in [2] came out at 0.1 nM.
`CC/C(=C(/c1ccc(/C=C/C(=O)O)cc1)c1ccc2[nH]ncc2c1)c1ccccc1C#N` registered an AUC in data set [1] of 200 ng·h/mL.
The compound `CC/C(=C(/c1ccc(/C=C/C(=O)O)cc1)c1ccc2[nH]ncc2c1)c1ccc(C#N)cc1C` showed an exposure (AUC) in data set [1] of 4300 ng·h/mL. The concentration at 6 h in data set [4] amounted to 14 nM.
Regarding `CC/C(=C(/c1ccc(/C=C/C(=O)O)cc1)c1ccc2[nH]ccc2c1)c1ccccc1`, the exposure (AUC) in [1] amounted to 9400 ng·h/mL.
On the same count and under the same terms, as for `CC/C(=C(/c1ccc(/C=C/C(=O)O)cc1)c1ccc2[nH]nnc2c1)c1ccccc1`, the figure is 2300 ng·h/mL.
Regarding `COc1ccc(-c2sc3cc(O)ccc3c2Oc2ccc(OCCN3CCCCC3)cc2)cc1` [ARZOXIFENE], the AUC at 672 h in data set [5] was found to be 50000 ng·h/mL.
As to `CC/C(=C(/c1ccc(/C=C/C(=O)O)cc1)c1ccc2[nH]ncc2c1)c1ccc(F)cc1Cl` [BRILANESTRANT], the clearance in “in vivo” came out at 11 mL/min/kg; in data set [14], 14 mL/min/kg; in data set [16], 7 mL/min/kg; in data set [17], 1.6 mL/min/kg. The half-life in [6] was 13 h; in data set [7], 4.2 h; in data set [15], 11 h; in data set [21] it was 3.9 h. The bioavailability in [8] was determined as 49%; in data set [23], 42%; in data set [28], 61%. Moreover, the exposure (AUC) stood at 5800 ng·h/mL in data set [9], 8800 ng·h/mL in [1], 69000 ng·h/mL in data set [18] and 10000 ng·h/mL in [26]. In addition, the Cmax in [10] was 20000 ng/mL; in data set [19], 1800 ng/mL; in data set [20], 4400 ng/mL; in [22] it was 6100 ng/mL. Also, the Vd worked out at 0.2 L/kg in [11], 0.5 L/kg in [12], 1.2 L/kg in data set [24] and 1.9 L/kg in data set [27]. Moreover, the exposure (AUC) at 672 h was 21000 ng·h/mL in [13] and 45000 ng·h/mL in [5]. Besides, in [2], the concentration at 24 h came out at 5.2 nM. Also, in data set [25], the Drug metabolism result is recorded as “metabolite_detected”.
For the compound `CC/C(=C(/c1ccc(/C=C/C(=O)O)cc1)c1ccc2[nH]ncc2c1)c1cscc1C`, the AUC in data set [1] amounted to 3800 ng·h/mL. In addition, the concentration at 24 h in data set [2] worked out at 10 nM.
On to `C[C@]12CC[C@@H]3c4ccc(O)cc4C[C@@H](CCCCCCCCC[S+]([O-])CCCC(F)(F)C(F)(F)F)[C@H]3[C@@H]1CC[C@@H]2O` (stereo partly specified) [FULVESTRANT], for which the exposure (AUC) at 672 h in data set [29] was 11000 ng·h/mL.
Regarding `CC/C(=C(/c1ccc(/C=C/C(=O)O)cc1)c1ccc2[nH]c(=O)oc2c1)c1ccccc1`, the AUC in [1] worked out at 3000 ng·h/mL. The concentration at 24 h in [2] was 0.2 nM.
For `CC/C(=C(/c1ccc(/C=C/C(=O)O)cc1)c1ccc2[nH]ncc2c1)c1ccccc1C`, in that order: 7200 ng·h/mL and 1.7 nM.
`CC/C(=C(/c1ccc(/C=C/C(=O)O[C@@H]2O[C@H](C(=O)O)[C@@H](O)[C@H](O)[C@H]2O)cc1)c1ccc2[nH]ncc2c1)c1ccc(F)cc1Cl`: in data set [30], the Drug metabolism entry is recorded as “metabolite_detected”. Moreover, the half-life in data set [31] is 8.1 h.
For the compound `Cc1c(-c2ccc(O)cc2)n(Cc2ccc(OCCN3CCCCC3)cc2)c2ccc(O)cc12` [PIPENDOXIFENE], the exposure (AUC) at 672 h in data set [5] turned out to be 7000 ng·h/mL.
As for `O=C(Cc1ccccc1Nc1c(Cl)cccc1Cl)O[C@@H]1O[C@H](C(=O)O)[C@@H](O)[C@H](O)[C@H]1O`, the half-life in data set [31] was 0.9 h.

These data come from ChEMBL document CHEMBL3580562 (J Med Chem, 2015).
